Experimental data reported in ChEMBL document CHEMBL2417512, “Spirolactam-based acetyl-CoA carboxylase inhibitors: toward improved metabolic stability of a chromanone lead structure” (J Med Chem, 2013).
≈ marks a conversion by molar mass, not a printed value.

What was measured:
[1] = Lipophilicity, log D of the compound; assay type: physicochemical; conditions: octanol/water
[2] = Hepatic clearance in human liver microsomes; assay type: ADME, Microsome; conditions: read-out: CLH
[3] = Solubility of the compound at pH 6.5; assay type: physicochemical; conditions: buffer
[4] = Cmax in rat at 5 mg/kg, po; assay type: ADME, organism-based; set-up: dose 5 mg/kg, route oral; conditions: in vivo
[5] = Oral bioavailability in rat at 5 mg/kg; assay type: ADME, organism-based; conditions: in vivo
[6] = Thermodynamic solubility of the compound at pH 1.2; assay type: physicochemical; conditions: buffer, read-out: Therm_solubility
[7] = AUC (last) in rat at 5 mg/kg, po; assay type: ADME, organism-based; set-up: time 0 - last, dose 5 mg/kg, route oral; conditions: plasma
[8] = Systemic clearance in rat at 1 mg/kg, iv; assay type: ADME, organism-based; set-up: dose 1 mg/kg, route intravenous; conditions: in vivo
[9] = Volume of distribution in rat at 1 mg/kg, iv; assay type: ADME, organism-based; set-up: dose 1 mg/kg, route intravenous; conditions: in vivo

Compound | logD [1] | microsomal CLint [2] | also measured
CCCNc1ccc2ccc(C(=O)N3CCC4(CC3)Cc3cn(C(C)(C)C)nc3C(=O)N4)cc2n1 | 2.1 | 29 µL/min/mg | –
CC(C)(C)n1cc2c(n1)C(=O)CC1(CCN(C(=O)c3ccc4[nH]ncc4c3)CC1)O2 | 1.4 | < 9 µL/min/mg | –
Cc1ccc2c(c1)C(=O)CC1(CCN(C(=O)c3ccc4[nH]ncc4c3)CC1)O2 | 2.5 | 19 µL/min/mg | –
Cc1n[nH]c2c(C)cc(C(=O)N3CCC4(CC3)Cc3cn(C(C)(C)C)nc3C(=O)N4)cc12 | 1.5 | < 8 µL/min/mg | –
Cc1n[nH]c2c(C)cc(C(=O)N3CCC4(CC3)Cc3cn(C(C)C)nc3C(=O)N4)cc12 | 1.1 | < 8 µL/min/mg | –
CCC(C)(C)n1cc2c(n1)C(=O)NC1(CCN(C(=O)c3cc(C)c4[nH]nc(C)c4c3)CC1)C2 | 1.7 | 35 µL/min/mg | –
Cc1n[nH]c2c(C)cc(C(=O)N3CCC4(CC3)Cc3cnn(C(C)(C)C)c3C(=O)N4)cc12 | 2.6 | 17 µL/min/mg | –
Cc1n[nH]c2c(C)cc(C(=O)N3CCC4(CC3)Cc3cnn(C(C)C)c3C(=O)N4)cc12 | 1.7 | < 8 µL/min/mg | –
Cc1n[nH]c2c(C)cc(C(=O)N3CCC4(CC3)Cc3cn(C(C)(C)C)nc3C(=O)N4C)cc12 | 1.4 | 14 µL/min/mg | –

Continued, in another order:

logD [1] | microsomal CLint [2] | Compound | also measured
1.9 | 19 µL/min/mg | CN(C)c1ccc2ccc(C(=O)N3CCC4(CC3)Cc3cn(C(C)(C)C)nc3C(=O)N4)cc2n1 | –
2.5 | < 8 µL/min/mg | CC(C)(C)n1cc2c(n1)C(=O)NC1(CCN(C(=O)c3ccc4[nH]nc(C(F)(F)F)c4c3)CC1)C2 | –
1.8 | < 8 µL/min/mg | CC(C)(C)n1cc2c(n1)C(=O)NC1(CCN(C(=O)c3ccc4[nH]nc(Cl)c4c3)CC1)C2 | –
2.6 | 17 µL/min/mg | CC(C)(C)n1cc2c(n1)C(=O)NC1(CCN(C(=O)c3ccc4[nH]cc(Cl)c4c3)CC1)C2 | –
3.5 | 31 µL/min/mg | CC(C)(C)n1cc2c(n1)C(=O)NC1(CCN(C(=O)c3ccc4c(Cl)c[nH]c4c3)CC1)C2 | –
1.4 | < 8 µL/min/mg | CC(C)(C)n1cc2c(n1)C(=O)NC1(CCN(C(=O)c3cnc4c(Cl)c[nH]c4c3)CC1)C2 | –
1.6 | < 8 µL/min/mg | COc1cc2cc(C(=O)N3CCC4(CC3)Cc3cn(C(C)(C)C)nc3C(=O)N4)ccc2cn1 | –
2.2 | < 8 µL/min/mg | COc1ccc2ccc(C(=O)N3CCC4(CC3)Cc3cn(C(C)(C)C)nc3C(=O)N4)cc2n1 | solubility [3]: 0.05 µg/mL (≈ 0.112 µM); Cmax [4]: 403 ng/mL; bioavailability [5]: 71%; solubility thermodynamic [6]: 0.49 µg/mL (≈ 1.09 µM); AUC(0-t) [7]: 2070 ng·h/mL; clearance [8]: 29 mL/min/kg; Vd [9]: 1.7 L/kg
2 | 12 µL/min/mg | COc1nccc2ccc(C(=O)N3CCC4(CC3)Cc3cn(C(C)(C)C)nc3C(=O)N4)cc12 | solubility [3]: 0.13 µg/mL (≈ 0.29 µM); Cmax [4]: 186 ng/mL; bioavailability [5]: 28%; AUC(0-t) [7]: 713 ng·h/mL; clearance [8]: 41 mL/min/kg
1.5 | 9 µL/min/mg | CNc1ccc2ccc(C(=O)N3CCC4(CC3)Cc3cn(C(C)(C)C)nc3C(=O)N4)cc2n1 | solubility thermodynamic [6]: 4.8 µg/mL (≈ 10.7 µM)
1.5 | 25 µL/min/mg | CNc1nccc2ccc(C(=O)N3CCC4(CC3)Cc3cn(C(C)(C)C)nc3C(=O)N4)cc12 | –
1 | < 8 µL/min/mg | CC(C)(C)n1cc2c(n1)C(=O)NC1(CCN(C(=O)c3ccc4[nH]ncc4c3)CC1)C2 | –
